Experimental data taken from patent US20130096119A1, “Isoquinolin-3-Ylurea Derivatives” (priority 2010, published 2013).
In brackets after ≈: the same amount, converted by molar mass.

Test system: S. pneumoniae ATCC 49619
Assay: Minimal inhibitory concentration (MIC) by microdilution method (CLSI M7-A7)
Type: cell-based, Streptococcus pneumoniae
Conditions: Streptococcus pneumoniae, ATCC49619, cation-adjusted Mueller-Hinton Broth supplemented with 3% (v/v) lysed horse blood
Method in brief: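 Broth microdilution per CLSI M7-A7 in cation-adjusted Mueller-Hinton broth, supplemented with 3% (v/v) lysed horse blood for S. pneumoniae; MIC reported in mg/l.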

Row | SMILES | MIC [µg/mL]
1 | CCNC(=O)Nc1cc2cc(-c3cccc(F)c3)cc(C)c2cn1 [Example 88, 1-ethyl-3-[6-(3-fluoro-phenyl)-8-methyl-isoquinolin-3-yl]-urea] | 2 (≈ 6.18 µM)
2 | CCNC(=O)Nc1cc2c(F)c(-c3cccnc3)cc(C)c2cn1 [Example 47, 1-ethyl-3-(5-fluoro-8-methyl-6-pyridin-3-yl-isoquinolin-3-yl)-urea] | 2 (≈ 6.17 µM)
3 | CCNC(=O)Nc1cc2cccc(NC(=O)c3ccc[nH]3)c2cn1.Cl [Example 182, 1H-pyrrole-2-carboxylic acid [3-(3-ethyl-ureido)-isoquinolin-8-yl]-amide hydrochloride] | 2
4 | CCNC(=O)Nc1cc2cccc(CNc3cc(C)on3)c2cn1.Cl [Example 301, 1-ethyl-3-{8-[(5-methyl-isoxazol-3-ylamino)-methyl]-isoquinolin-3-yl}-urea hydrochloride] | 4
5 | CCNC(=O)Nc1cc2cc(-c3ccccc3NC(C)=O)cc(C)c2cn1 [Example 86, N-{2-[3-(3-ethyl-ureido)-8-methyl-isoquinolin-6-yl]-phenyl}-acetamide] | 16 (≈ 44.1 µM)
6 | CCNC(=O)Nc1cc2c(-c3ccnnc3)ccc(C)c2cn1 [Example 279, 1-ethyl-3-(8-methyl-5-pyridazin-4-yl-isoquinolin-3-yl)-urea] | 1 (≈ 3.25 µM)
7 | CCNC(=O)Nc1cc2cccc(Nc3cccc(O)c3)c2cn1 [Example 170, 1-ethyl-3-[8-(3-hydroxy-phenylamino)-isoquinolin-3-yl]-urea] | 2 (≈ 6.2 µM)
8 | CCNC(=O)Nc1cc2cc(-c3ccc4nccn4c3)cc(C)c2cn1 [Example 25, 1-ethyl-3-(6-imidazo[1,2-a]pyridin-6-yl-8-methyl-isoquinolin-3-yl)-urea] | 0.5 (≈ 1.45 µM)
9 | CCNC(=O)Nc1cc2c(F)c(-c3ccc(S(N)(=O)=O)cc3)cc(Cl)c2cn1 [Example 111, 4-[8-chloro-3-(3-ethyl-ureido)-5-fluoro-isoquinolin-6-yl]-benzenesulfonamide] | 1 (≈ 2.36 µM)
10 | CCNC(=O)Nc1cc2cc(-c3ccc(F)nc3)cc(C)c2cn1 [Example 99, 1-ethyl-3-[6-(6-fluoro-pyridin-3-yl)-8-methyl-isoquinolin-3-yl]-urea] | 2 (≈ 6.17 µM)

These reach a lower MIC. Values come first.

Row | MIC [µg/mL] | SMILES
11 | 0.25 (≈ 0.726 µM) | CCNC(=O)Nc1cc2cc(-c3ccc(CC#N)cc3)cc(C)c2cn1 [Example 92, 1-[6-(4-(cyanomethyl)-phenyl)-8-methyl-isoquinolin-3-yl]-3-ethyl-urea]
12 | 0.25 (≈ 0.639 µM) | CCNC(=O)Nc1cc2cc(NC(=O)c3ccc(N(C)C)cc3)cc(C)c2cn1 [Example 121, 4-dimethylamino-N-[3-(3-ethyl-ureido)-8-methyl-isoquinolin-6-yl]-benzamide]
13 | ≤ 0.031 | CCNC(=O)Nc1cc2cc(NC(=O)c3cccc(N(C)C)c3)cc(Nc3cccnc3)c2cn1 [Example 241, 3-dimethylamino-N-[3-(3-ethyl-ureido)-8-(pyridin-3-ylamino)-isoquinolin-6-yl]-benzamide]
14 | 0.25 (≈ 0.664 µM) | CCNC(=O)Nc1cc2cc(-c3ccc(C(=O)N(C)C)cc3)cc(C)c2cn1 [Example 24, 4-[3-(3-ethyl-ureido)-8-methyl-isoquinolin-6-yl]-N,N-dimethyl-benzamide]
